Key:
[1] = target: Serine/threonine-protein kinase B-raf (Homo sapiens) (UniProt P15056); assay: Inhibition of recombinant full length human GST-tagged BRAF expressed in baculovirus expression system at 0.1 uM using serine/threonine-3 peptide as substrate incubated for 60 mins by Z'-LYTE assay relative to control
[2] = target: Macrophage colony-stimulating factor 1 receptor (Homo sapiens) (UniProt P07333); assay: Inhibition of recombinant human His-tagged CSF1R catalytic domain (538 to 910 residues) expressed in Baculovirus expression system at 0.1 uM using tyrosine-1 peptide as substrate incubated for 60 mins by Z'-LYTE assay relative to control
[3] = target: Epithelial discoidin domain-containing receptor 1 (Homo sapiens) (UniProt Q08345); assay: Inhibition of tracer 178 binding to recombinant human GST-tagged DDR1 catalytic domain (440 to 876 residues) expressed in baculovirus expression system at 0.1 uM measured after 60 mins by Lanthascreen assay relative to control
[4] = target: Mitogen-activated protein kinase 1 (Homo sapiens) (UniProt P28482); assay: Inhibition of recombinant full length human GST-tagged ERK2 expressed in Escherichia coli expression system at 0.1 uM using serine/threonine-3 peptide as substrate incubated for 60 mins by Z'-LYTE assay relative to control
[5] = target: Tyrosine-protein kinase Fgr (Homo sapiens) (UniProt P09769); assay: Inhibition of recombinant full length human His-tagged FGR expressed in baculovirus expression system at 0.1 uM using tyrosine-2 peptide as substrate incubated for 60 mins by Z'-LYTE assay relative to control
[6] = target: G protein-coupled receptor kinase 5 (Homo sapiens) (UniProt P34947); assay: Inhibition of recombinant full length human GST-tagged GRK5 expressed in baculovirus expression system at 0.1 uM using serine/threonine-16 peptide as substrate incubated for 60 mins by Z'-LYTE assay relative to control
[7] = target: Insulin-like growth factor 1 receptor (Homo sapiens) (UniProt P08069); assay: Inhibition of recombinant human His-tagged IGF1R catalytic domain (960 to 1397 residues) expressed in baculovirus expression system at 0.1 uM using tyrosine-1 peptide as substrate incubated for 60 mins by Z'-LYTE assay relative to control
[8] = target: Interleukin-1 receptor-associated kinase 1 (Homo sapiens) (UniProt P51617); assay: Inhibition of recombinant human GST-tagged IRAK1 catalytic domain (194 to 712 residues) expressed in baculovirus expression system at 0.1 uM using Histone H3 (1-20) peptide as substrate incubated for 60 mins by Adapta assay relative to control
Sequence of Interleukin-1 receptor-associated kinase 1 (Homo sapiens) (P51617 whole entry, looked up, the tested form may be a part): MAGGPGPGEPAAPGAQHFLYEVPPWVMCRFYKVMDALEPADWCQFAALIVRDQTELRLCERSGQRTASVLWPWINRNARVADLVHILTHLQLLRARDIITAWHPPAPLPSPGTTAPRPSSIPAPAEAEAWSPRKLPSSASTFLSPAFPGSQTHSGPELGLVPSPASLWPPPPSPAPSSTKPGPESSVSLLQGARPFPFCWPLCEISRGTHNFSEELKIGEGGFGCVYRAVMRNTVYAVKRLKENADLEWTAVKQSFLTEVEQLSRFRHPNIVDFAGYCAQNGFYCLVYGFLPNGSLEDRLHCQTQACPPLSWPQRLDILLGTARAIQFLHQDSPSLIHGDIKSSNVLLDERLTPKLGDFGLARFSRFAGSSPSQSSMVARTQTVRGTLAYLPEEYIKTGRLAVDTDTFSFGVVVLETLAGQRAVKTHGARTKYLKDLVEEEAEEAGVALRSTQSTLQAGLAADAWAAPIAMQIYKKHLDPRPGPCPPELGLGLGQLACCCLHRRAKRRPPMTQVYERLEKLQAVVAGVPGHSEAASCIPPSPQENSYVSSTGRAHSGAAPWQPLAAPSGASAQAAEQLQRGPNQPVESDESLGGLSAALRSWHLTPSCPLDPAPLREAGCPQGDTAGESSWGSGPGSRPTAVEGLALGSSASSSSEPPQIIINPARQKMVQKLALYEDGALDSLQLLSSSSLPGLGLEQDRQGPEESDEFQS

[9] = target: Insulin receptor (Homo sapiens) (UniProt P06213); assay: Inhibition of recombinant human GST-tagged INSR (1011 to 1382 residues) expressed in baculovirus expression system at 0.1 uM using tyrosine-1 peptide as substrate incubated for 60 mins by Z'-LYTE assay relative to control
Sequence of Insulin receptor (Homo sapiens) (P06213 28-758 limits assumed): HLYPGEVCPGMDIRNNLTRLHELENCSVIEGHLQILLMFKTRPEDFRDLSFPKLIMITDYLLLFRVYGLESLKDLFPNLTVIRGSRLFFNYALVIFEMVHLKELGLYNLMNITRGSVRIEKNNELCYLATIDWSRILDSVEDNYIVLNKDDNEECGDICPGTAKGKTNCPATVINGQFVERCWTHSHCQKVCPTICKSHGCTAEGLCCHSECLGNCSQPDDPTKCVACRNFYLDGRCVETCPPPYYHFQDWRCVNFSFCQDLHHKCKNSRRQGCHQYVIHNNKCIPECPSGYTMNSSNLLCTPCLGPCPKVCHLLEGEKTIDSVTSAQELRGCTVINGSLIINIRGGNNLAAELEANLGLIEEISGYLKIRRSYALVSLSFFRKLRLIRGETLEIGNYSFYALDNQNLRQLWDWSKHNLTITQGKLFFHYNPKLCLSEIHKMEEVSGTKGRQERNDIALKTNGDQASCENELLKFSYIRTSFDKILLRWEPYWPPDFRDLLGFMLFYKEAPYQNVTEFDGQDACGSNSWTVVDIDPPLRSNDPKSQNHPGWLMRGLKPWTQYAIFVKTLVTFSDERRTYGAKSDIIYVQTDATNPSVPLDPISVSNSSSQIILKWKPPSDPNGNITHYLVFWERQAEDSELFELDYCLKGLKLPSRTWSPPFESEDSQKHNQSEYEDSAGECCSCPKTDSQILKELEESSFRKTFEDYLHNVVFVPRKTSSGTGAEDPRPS
Sequence of Insulin receptor (Homo sapiens) (P06213 763-1382 limits assumed): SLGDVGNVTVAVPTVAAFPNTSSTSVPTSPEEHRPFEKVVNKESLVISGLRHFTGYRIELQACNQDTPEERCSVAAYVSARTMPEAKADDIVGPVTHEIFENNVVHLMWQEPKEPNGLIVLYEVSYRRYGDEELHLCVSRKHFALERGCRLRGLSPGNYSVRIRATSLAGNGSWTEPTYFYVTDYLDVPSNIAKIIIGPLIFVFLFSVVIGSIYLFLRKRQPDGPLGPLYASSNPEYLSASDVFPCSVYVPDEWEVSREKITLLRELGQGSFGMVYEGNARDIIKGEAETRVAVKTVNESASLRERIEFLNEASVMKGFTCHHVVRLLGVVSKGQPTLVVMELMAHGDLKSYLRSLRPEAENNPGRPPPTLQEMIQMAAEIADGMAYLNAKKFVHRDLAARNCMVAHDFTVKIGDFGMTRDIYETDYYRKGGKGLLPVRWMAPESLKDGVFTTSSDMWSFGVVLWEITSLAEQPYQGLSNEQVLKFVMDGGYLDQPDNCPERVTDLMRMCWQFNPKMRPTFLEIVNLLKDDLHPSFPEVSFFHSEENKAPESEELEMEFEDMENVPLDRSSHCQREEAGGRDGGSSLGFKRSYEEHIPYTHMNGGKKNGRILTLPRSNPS

[10] = target: Leukocyte tyrosine kinase receptor (Homo sapiens) (UniProt P29376); assay: Inhibition of recombinant human GST-tagged LTK (450 to 864 residues) expressed in baculovirus expression system at 0.1 uM using tyrosine-6 peptide as substrate incubated for 60 mins by Z'-LYTE assay relative to control
Sequence of Leukocyte tyrosine kinase receptor (Homo sapiens) (P29376 whole entry, the tested form may be a part): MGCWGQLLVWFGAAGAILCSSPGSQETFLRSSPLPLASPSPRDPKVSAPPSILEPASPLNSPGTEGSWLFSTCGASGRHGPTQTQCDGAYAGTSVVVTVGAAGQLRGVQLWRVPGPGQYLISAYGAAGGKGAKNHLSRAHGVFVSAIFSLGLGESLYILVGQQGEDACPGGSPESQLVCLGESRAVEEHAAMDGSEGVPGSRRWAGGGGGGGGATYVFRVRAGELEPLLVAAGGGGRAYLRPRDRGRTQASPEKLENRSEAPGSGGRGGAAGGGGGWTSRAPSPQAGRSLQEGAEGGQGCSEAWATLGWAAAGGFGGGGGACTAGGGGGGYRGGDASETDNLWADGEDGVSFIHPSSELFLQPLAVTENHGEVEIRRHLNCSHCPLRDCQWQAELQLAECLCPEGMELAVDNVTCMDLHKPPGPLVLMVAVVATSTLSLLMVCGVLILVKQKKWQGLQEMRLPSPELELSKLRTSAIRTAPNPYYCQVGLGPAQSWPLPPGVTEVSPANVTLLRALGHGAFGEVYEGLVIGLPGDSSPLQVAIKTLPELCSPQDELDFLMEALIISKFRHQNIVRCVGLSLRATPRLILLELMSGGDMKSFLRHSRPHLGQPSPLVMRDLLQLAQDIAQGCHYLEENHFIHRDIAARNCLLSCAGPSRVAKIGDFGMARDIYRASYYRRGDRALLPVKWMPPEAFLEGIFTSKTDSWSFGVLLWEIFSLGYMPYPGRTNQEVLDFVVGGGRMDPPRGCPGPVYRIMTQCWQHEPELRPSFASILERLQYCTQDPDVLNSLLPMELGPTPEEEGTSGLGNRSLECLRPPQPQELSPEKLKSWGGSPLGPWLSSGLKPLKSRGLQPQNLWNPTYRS

[11] = target: Tyrosine-protein kinase Lck (Homo sapiens) (UniProt P06239); assay: Inhibition of recombinant full length human His-tagged LCK expressed in baculovirus expression system at 0.1 uM using tyrosine-2 peptide as substrate incubated for 60 mins by Z'-LYTE assay relative to control
Sequence of Tyrosine-protein kinase Lck (Homo sapiens) (P06239 2-509 limits assumed): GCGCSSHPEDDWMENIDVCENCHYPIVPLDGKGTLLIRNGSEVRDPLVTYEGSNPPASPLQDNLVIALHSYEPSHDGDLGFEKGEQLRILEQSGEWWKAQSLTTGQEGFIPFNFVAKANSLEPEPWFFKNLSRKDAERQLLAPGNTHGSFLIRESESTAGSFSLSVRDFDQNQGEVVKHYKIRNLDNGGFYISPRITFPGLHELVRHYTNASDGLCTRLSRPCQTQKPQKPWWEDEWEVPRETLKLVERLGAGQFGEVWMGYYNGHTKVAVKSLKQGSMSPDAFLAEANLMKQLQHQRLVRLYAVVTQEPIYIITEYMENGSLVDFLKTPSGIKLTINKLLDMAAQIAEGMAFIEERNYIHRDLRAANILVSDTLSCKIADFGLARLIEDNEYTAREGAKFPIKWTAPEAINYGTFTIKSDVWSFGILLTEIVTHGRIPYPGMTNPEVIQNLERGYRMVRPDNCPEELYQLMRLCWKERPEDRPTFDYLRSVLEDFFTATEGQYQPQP

[12] = target: Mitogen-activated protein kinase kinase kinase kinase 4 (Homo sapiens) (UniProt O95819); assay: Inhibition of recombinant human GST-tagged MAP4K4 catalytic domain (1 to 328 residues) expressed in baculovirus expression system at 0.1 uM using serine/threonine-7 peptide as substrate incubated for 60 mins by Z'-LYTE assay relative to control
[13] = target: Misshapen-like kinase 1 (Homo sapiens) (UniProt Q8N4C8); assay: Inhibition of recombinant human GST-tagged MINK1 catalytic domain (1 to 320 residues) expressed in baculovirus expression system at 0.1 uM using serine/threonine-7 peptide as substrate incubated for 60 mins by Z'-LYTE assay relative to control
[14] = target: Platelet-derived growth factor receptor alpha (Homo sapiens) (UniProt P16234); assay: Inhibition of recombinant human GST-tagged PDGFRalpha (550 to 1089 residues) expressed in baculovirus expression system at 0.1 uM using tyrosine-4 peptide as substrate incubated for 60 mins by Z'-LYTE assay relative to control
[15] = target: Serine/threonine-protein kinase PLK2 (Homo sapiens) (UniProt Q9NYY3); assay: Inhibition of recombinant full length human GST-tagged PLK2 expressed in baculovirus expression system at 0.1 uM using serine/threonine-16 peptide as substrate incubated for 60 mins by Z'-LYTE assay relative to control
[16] = target: Serine/threonine-protein kinase PLK3 (Homo sapiens) (UniProt Q9H4B4); assay: Inhibition of recombinant human GST-tagged PLK3 catalytic domain (58 to 340 residues) expressed in baculovirus expression system at 0.1 uM using serine/threonine-16 peptide as substrate incubated for 60 mins by Z'-LYTE assay relative to control
[17] = target: Phosphorylase b kinase gamma catalytic chain, skeletal muscle/heart isoform (Homo sapiens) (UniProt Q16816); assay: Inhibition of recombinant full length human GST-tagged PHKG1 expressed in baculovirus expression system at 0.1 uM using serine/threonine-7 peptide as substrate incubated for 60 mins by Z'-LYTE assay relative to control
[18] = target: Ribosomal protein S6 kinase alpha-1 (Homo sapiens) (UniProt Q15418); assay: Inhibition of recombinant full length human His-tagged RSK1 expressed in baculovirus expression system at 0.1 uM using serine/threonine-6 peptide as substrate incubated for 60 mins by Z'-LYTE assay relative to control
Sequence of Ribosomal protein S6 kinase alpha-1 (Homo sapiens) (Q15418 whole entry): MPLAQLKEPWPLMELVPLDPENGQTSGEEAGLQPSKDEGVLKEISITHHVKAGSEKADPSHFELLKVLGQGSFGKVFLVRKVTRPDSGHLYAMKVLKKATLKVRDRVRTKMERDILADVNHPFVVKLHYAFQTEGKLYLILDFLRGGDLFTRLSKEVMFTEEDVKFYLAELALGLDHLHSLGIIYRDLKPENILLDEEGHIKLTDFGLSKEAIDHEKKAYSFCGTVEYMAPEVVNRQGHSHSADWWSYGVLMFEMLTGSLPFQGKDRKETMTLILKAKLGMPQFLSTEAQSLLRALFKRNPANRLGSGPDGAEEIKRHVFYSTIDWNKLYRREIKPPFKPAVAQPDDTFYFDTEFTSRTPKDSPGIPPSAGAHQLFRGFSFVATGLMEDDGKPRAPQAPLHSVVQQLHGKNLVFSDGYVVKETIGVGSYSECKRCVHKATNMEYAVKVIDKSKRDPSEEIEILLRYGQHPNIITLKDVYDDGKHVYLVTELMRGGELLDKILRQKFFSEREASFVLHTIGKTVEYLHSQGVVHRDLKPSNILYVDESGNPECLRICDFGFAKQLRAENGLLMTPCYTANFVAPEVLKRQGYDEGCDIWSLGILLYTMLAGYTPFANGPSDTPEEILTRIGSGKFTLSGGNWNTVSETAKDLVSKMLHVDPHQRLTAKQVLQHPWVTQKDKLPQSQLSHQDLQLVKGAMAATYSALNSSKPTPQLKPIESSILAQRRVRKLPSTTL

[19] = target: Tyrosine-protein kinase Tec (Homo sapiens) (UniProt P42680); assay: Inhibition of tracer 178 binding to recombinant full length human His-tagged TEC expressed in baculovirus expression system at 0.1 uM measured after 60 mins by Lanthascreen assay
[20] = target: Testis-specific serine/threonine-protein kinase 1 (Homo sapiens) (UniProt Q9BXA7); assay: Inhibition of recombinant full length human His-tagged TSSK1 expressed in baculovirus expression system at 0.1 uM using serine/threonine-4 peptide as substrate incubated for 60 mins by Z'-LYTE assay relative to control
[21] = target: Non-receptor tyrosine-protein kinase TYK2 (Homo sapiens) (UniProt P29597); assay: Inhibition of recombinant human GST-tagged TYK2 catalytic domain (833 to 1187 residues) expressed in baculovirus expression system at 0.1 uM using tyrosine-3 peptide as substrate incubated for 60 mins by Z'-LYTE assay relative to control
[22] = target: Serine/threonine-protein kinase mTOR (Homo sapiens) (UniProt P42345); assay: Inhibition of recombinant human GST-tagged mTOR catalytic domain (1360 to 2549 residues) expressed in baculovirus expression system at 0.1 uM using serine/threonine-11 peptide as substrate incubated for 60 mins by Z'-LYTE assay relative to control
[23] = target: Myosin light chain kinase (Homo sapiens) (UniProt Q32MK0); assay: Inhibition of tracer 236 binding to recombinant full length human GST-tagged MYLK3 expressed in baculovirus expression system at 0.1 uM measured after 60 mins by Lanthascreen assay relative to control
Sequence of Myosin light chain kinase (Homo sapiens) (Q32MK0 whole entry): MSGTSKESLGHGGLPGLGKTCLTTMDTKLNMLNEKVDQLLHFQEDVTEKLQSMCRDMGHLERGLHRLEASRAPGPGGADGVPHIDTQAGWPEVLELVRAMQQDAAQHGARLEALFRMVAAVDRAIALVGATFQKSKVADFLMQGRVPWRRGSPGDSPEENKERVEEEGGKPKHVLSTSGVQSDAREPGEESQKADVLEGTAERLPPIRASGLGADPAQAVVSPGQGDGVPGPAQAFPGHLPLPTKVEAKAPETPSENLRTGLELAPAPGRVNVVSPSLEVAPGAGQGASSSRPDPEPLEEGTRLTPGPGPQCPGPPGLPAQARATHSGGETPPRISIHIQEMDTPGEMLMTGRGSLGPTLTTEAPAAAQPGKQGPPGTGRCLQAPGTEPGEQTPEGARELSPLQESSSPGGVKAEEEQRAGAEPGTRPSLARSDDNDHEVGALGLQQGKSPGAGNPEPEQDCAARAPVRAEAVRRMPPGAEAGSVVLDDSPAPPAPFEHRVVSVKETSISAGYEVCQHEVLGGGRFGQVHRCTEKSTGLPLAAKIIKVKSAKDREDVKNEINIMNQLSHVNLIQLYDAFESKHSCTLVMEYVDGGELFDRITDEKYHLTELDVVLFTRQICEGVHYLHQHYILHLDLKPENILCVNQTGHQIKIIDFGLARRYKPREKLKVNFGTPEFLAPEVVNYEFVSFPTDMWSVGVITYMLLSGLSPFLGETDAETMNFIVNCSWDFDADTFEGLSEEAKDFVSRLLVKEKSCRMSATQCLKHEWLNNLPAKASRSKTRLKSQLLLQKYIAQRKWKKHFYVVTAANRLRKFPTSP

Compound: CCN1CC2(C1)CN(c1ccc(Nc3ncc(F)c(-c4cnn5c4[C@H](C)CCCC5)n3)nc1)C2
- inhibition [1]: 4%
- inhibition [2]: 88%
- inhibition [3]: 0%
- inhibition [4]: 6%
- inhibition [5]: 7%
- inhibition [6]: 3%
- inhibition [7]: 7%
- inhibition [8]: 48.5%
- inhibition [9]: -1.5%
- inhibition [10]: 25.5%
- inhibition [11]: 3.5%
- inhibition [12]: 39%
- inhibition [13]: 27.5%
- inhibition [14]: 2.5%
- inhibition [15]: 3%
- inhibition [16]: 7.5%
- inhibition [17]: 64%
- inhibition [18]: 19.5%
- inhibition [19]: 5%
- inhibition [20]: 67.5%
- inhibition [21]: 32.5%
- inhibition [22]: 2%
- inhibition [23]: 19.5%

Compound: CCN1CCN(Cc2ccc(Nc3ncc(F)c(-c4cc(F)c5nc(C)n(C(C)C)c5c4)n3)nc2)CC1 [ABEMACICLIB]
- inhibition [1]: 4.5%
- inhibition [2]: 41.4%
- inhibition [3]: 8.7%
- inhibition [4]: 8%
- inhibition [5]: 8.5%
- inhibition [6]: 2%
- inhibition [7]: 14%
- inhibition [8]: 99.8%
- inhibition [9]: 3.5%
- inhibition [10]: 10.5%
- inhibition [11]: 12.5%
- inhibition [12]: 89.5%
- inhibition [13]: 79.5%
- inhibition [14]: 4.5%
- inhibition [15]: 0.5%
- inhibition [16]: -3.5%
- inhibition [17]: 62%
- inhibition [18]: 8%
- inhibition [19]: 0.8%
- inhibition [20]: 21.5%
- inhibition [21]: 3%
- inhibition [22]: 9.5%
- inhibition [23]: 30.8%

Source: ChEMBL document CHEMBL4385643, “Design of a brain-penetrant CDK4/6 inhibitor for glioblastoma” (Bioorg Med Chem Lett, 2019)
